Assay results taken from patent publication US20260115186A1, “PIPERIDINE UREA DERIVATIVES FOR CANCER THERAPY” (NEUROPN THERAPEUTICS INC., priority 2022, published 2026).

Test system: adult zebrafish, paclitaxel induced nerve damage
Test: Paclitaxel-induced peripheral neuropathy in adult zebrafish (tail fin stimulation)
Format: in vivo
Details: 3 μL of 10-μM paclitaxel, four consecutive days (Days 2-5), FIG. 9
Experimental: Method to evaluate potential of compounds of Formula 1 to reduce or block chemotherapy-induced peripheral neuropathy—Animal (zebrafish) model described below and in literature (Lisse T S et al PNAS 113 (15) E2189-E2198) was used to evaluate potential of compounds of Formula 1 to reduce or block neuronal damage induced by chemotherapeutics.
To induce peripheral neuropathy in adult zebrafish, 3 μL of a 10-μM paclitaxel solution in 0.15% DMSO was administered with a 33 gauge Hamilton Syringe for a zebrafish with average ˜200 mg body weight. Fish were treated with vehicle alone or paclitaxel for four consecutive days (Days 2-5) or paclitaxel with Compound A (10- or 30 ng). Compound A was dosed orally by mixing with the fish feed pellets. Fishes were conditioned to consume three pellets a day. […] To prepare test compound infused pellet, a known quantity of the compound was mixed with the known quantity of the feed powder and were extruded in to 4 mg pellet containing the desired administration dose per pellet. Concentration of test compound dosed per fish were controlled by the number of pellets and the quantity of compound per pellet. […]
To determine the peripheral nerve damage, fish were wrapped in plastic foil until calm, and the distal tail fin was stimulated with an insect pin until twitching of the fish was observed. Number of stimuli until twitch was recorded.

Compound: CC(=O)O[C@H]1C(=O)[C@@]2(C)[C@H]([C@H](OC(=O)c3ccccc3)[C@]3(O)C[C@H](OC(=O)[C@H](O)[C@@H](NC(=O)c4ccccc4)c4ccccc4)C(C)=C1C3(C)C)[C@]1(OC(C)=O)CO[C@@H]1C[C@@H]2O [paclitaxel]
- peripheral nerve damage (number of stimuli until twitch) compared to vehicle alone: significant nerve damage
